From patent US20180008593A1 (Purdue Pharma L.P., priority 2005, published 2018)
“And” between values parts separate entries of the source, which are not always exact repeats. Equal entries are not always repeated. Where two headings read alike, the source gives them in different places.

Columns and labels:
[1] = system: experimental human pain model, healthy volunteers; assay: Pain-related evoked potentials (EEG) after CO2 stimulation of the nasal mucosa, Example 4; format: in vivo; details: for Magnitude of reduction of amplitude P1N1 at C4 compared to baseline: 60% CO2
Method: This was a single site, single dose, double blind, placebo-controlled, 5-treatment, 5-period, randomized, balanced crossover study in healthy adult male and female subjects. […] Subjects were allocated each of the 5 treatments described in the synopsis according to a random allocation schedule (RAS). There was a 7-day washout period
Analgesic effects were assessed by means of an experimental human pain model based on the chemosomatosensory pain-related cortical potentials (CSSEPs) and pain-ratings after specific phasic nociceptive stimulation of the nasal mucosa with gaseous CO2. In addition, intensity estimates of tonic pain produced by stimulation of the nasal mucosa with dry air at controlled flow and temperature were employed.
Within the present pain model, the following were used as indicators of analgesia: • post-treatment decrease in pain-ratings and/or • post-treatment decrease in amplitudes of pain-related evoked potentials and/or • post-treatment increase in latencies of pain-related evoked potentials, relative to the pretreatment values.
1. Base-to-peak amplitudes P1, N1 and P2, peak-to-peak amplitudes P1 N1 and N1P2 of pain related evoked potentials 2. Latencies P1, N1 and P2 of pain-related evoked potentials 3. Intensity estimates of phasic (C02-) pain 4. Intensity estimates of tonic pain
(§1) In the first 20 minutes, 40 phasic CO2-stimuli were applied (20 stimuli at a concentration of 70% and 20 at a concentration of 60%, interstimulus interval 30 s). In response to these stimuli, pain-related potentials and subjective intensity estimates were recorded.
(§2) CO2-stimuli were mixed in a constantly flowing air stream with controlled temperature (36.5° C.) and humidity (80% relative humidity) presented to the left nostril (stimulus duration 200 ms, interstimulus interval 30 s). […] During intervals between phasic stimuli subjects performed a simple tracking task on a video screen. Using a joystick, they had to keep a small square inside a larger one that randomly moved around.
The EEG was recorded from 5 positions of the international 10/20 system (Cz, C3, C4, Fz and Pz; see FIG. 40) referenced to linked earlobes (A1+A2). Possible eye blink artifacts were monitored from an additional site (Fp2/A1+A2). Stimulus linked EEG segments of 2040 ms duration were sampled with a frequency of 250 Hz (band pass 0.2-30 Hz, pre-stimulus period 512 ms). The recorded analog EEG segments were then converted to digital and filed electronically. The average value for each recording position was separately calculated, discarding all eye blink contaminated records. By this procedure pain-related evoked potentials were obtained in response to the painful CO2 stimuli. Base to peak amplitudes P1, N1 and P2, the peak to peak amplitudes P1 N1 and N1 P2 and the latencies of P1, […] and P2 were measured. Wherever the time of measurement was used in the data analysis, the mid-time of a session was taken. FIG. 40 presents the components of the pain-related evoked potentials.

[2] = system: bowel function of pain patients on oxycodone with need for laxatives; details: for Mean Bowel Function Score, Mean (SD) V3: V3 end of titration; for Mean Bowel Function Score, Mean (SD) V5: V5 end of maintenance
Method: (§3) a) Mean Pain during the last 7 days prior to each visit, based on the patient's twice-daily assessment of pain intensity using the 0-100 numerical analogue scale (NAS) (0=no pain and 100=worst imaginable pain). Mean Pain was calculated for each study visit as the mean value of the daily mean values of all patient's diary entries from the last 7 days. b) Mean bowel function: patient's assessment, at each study visit, of bowel function during the last 7 days prior to each visit. Mean bowel function was calculated from the mean of the three 0-100 NAS scores: ease of defecation (0=easy/no difficulty, 100=severe difficulty), feeling of incomplete bowel evacuation (0=not at all, 100=very strong), and judgment of constipation (0=not at all, 100=very strong). Secondary efficacy variables of interest included among others: c) Global assessment of efficacy, tolerability and preference. […] Tolerability was measured using the same 0 to 7 numerical analogue scale.
Mean bowel function was calculated for each study visit from the mean of the three NAS values ease/difficulty of defecation, feeling of incomplete bowel evacuation and judgment of constipation.
In addition, two-sided 95% CIs (CI, confidence interval) for the difference in means between the treatment groups were provided. […] These analyses were performed for the ITT and PP populations.
The parameter estimates derived were taken to display a surface plot of the whole dose range investigated. Moreover, a contour plot of the bowel function with a granulation of 10 was performed.

[3] = oral administration; extensive first-pass-metabolism; cited from earlier work
[4] = system: patients with severe chronic pain of tumour and non-tumour origin; details: for Mean Pain, Mean (SD) V3: V3 end of titration; for Mean Pain, Mean (SD) V5: V5 end of maintenance
Method: The pre-randomization phase consisted of screening and titration/run-in. Following screening, patients entered either a titration or run-in period. Patients with insufficient pain pre-treatment entered a minimum 2-week titration period and were individually titrated and stabilized at an oxycodone dose of 40 mg, 60 mg or 80 mg per day. Patients on stable oxycodone pre-treatment at screening (between 40-80 mg/day) and with concomitant constipation, entered a 1 week run-in period and were eligible for the maintenance phase without prior titration. For all patients, the dose of oxycodone could be adjusted during titration or run-in and investigators maintained compulsory telephone contact every 2nd day to assess pain control and make dose changes.
as §3

[5] = system: rats physically dependent on oxycodone; assay: Naloxone-precipitated withdrawal in oxycodone-dependent rats (Gellert-Holtzman global rating, graded and checked signs), Example 5; details: i.v.
Method: Rats were implanted with Alzet 2ML 1 osmotic minipumps infusing either saline vehicle or oxycodone at 1.5 mg/kg/h for 7 days as described above. […] The complete parametric design for oxycodone-pump implanted rats required testing rats with vehicle:vehicle and oxycodone:vehicle.
Signs of physical dependence were evaluated in rats intravenously administered the drugs, and then immediately placed back in their home cages for a 60-min observation period. […] The table is divided into Graded Signs and Checked Signs, and assigned a weighted factor. The rats were evaluated for these signs during the 60 min observation period, the scores were collected, and a combined Global Score was assigned to each rat. Data were analyzed by combining the graded signs of escape attempts and wet-dog shakes into a single score of Grades Signs during each 15-min interval for 60-min. Checked signs were analyzed during each 15-min interval for 60-min.
The rats were assessed in 15-min intervals for both graded and checked signs for a total of 60 min. The graded signs of escape attempts and wet-dog shakes were tallied, whereas, checked signs such as diarrhea, profuse salivation, chromodactorrhea, etc. were noted as being either absent or present during the 15-min period. Both graded and checked signs were assigned a numeric score based on studies by Gellert and Holtzman (1978), and the total value for each animal was added to provide a global rating.
The incidence of checked signs during opioid withdrawal was also analyzed statistically within each time interval at 0-15, 15-30, 30-45 and 45-60 minutes. The data was analyzed within each time interval using contingency table Person's Chi Square analysis (Sigma Stat Statistical Software, SPSS, Inc.) to evaluate the X2 value. X2 values exceeding the critical value for 7 of 14.1 were considered statistically significant intervals for that checked behavioral sign.

[6] = system: experimental human pain model, healthy volunteers; assay: Intensity estimates of phasic (CO2) pain, Example 4; format: in vivo; details: 70% CO2; 45 mg naloxone with 20 mg oxycodone
Method: as §1, with “recorded. Subsequently, tonic pain was induced for 16 minutes and subjects had to rate the intensity of the dull, burning pain.” for “recorded.”
as §2
Within 3-4 seconds after presentation of each CO2 stimulus, subjects compared the perceived intensity to a standard stimulus (70% v/v CO2) presented at the beginning of the first session of each trial day. […] The intensity of the standard stimulus was defined as 100 Estimation Units (EU). The mid-time of a session was regarded as time of measurement. Intensity estimates of the CO2 stimuli (60% and 70%) were evaluated separately for each concentration. On a trial day, the ratings of each post-treatment session were evaluated relative to base line values. […]

[7] = system: patients with severe chronic pain; assay: Laxative intake / mean laxative dose, Example 1; format: in vivo, human
Method: d) Laxative intake/mean laxative dose, which was calculated from the respective case report forms (CRF) entries. An analysis of the mean laxative dose during the last seven days was performed for patients who took only one laxative during the entire study. Entries from the medication record CRF page were used for all calculations (laxatives were identified by the WHO ATC Code A06A). For laxative intake number of days with laxation during the last 7 days and the percentage of days with laxation during the last 7 days were calculated for each study visit. In addition, the percentage of days with laxation during the whole maintenance phase and during the follow-up phase was calculated.

[8] = ITT non-missing, naloxone 10 mg/day + oxycodone 40-80 mg/day
[9] = ITT non-missing, naloxone 20 mg/day + oxycodone 40-80 mg/day
[10] = ITT non-missing, naloxone 40 mg/day + oxycodone 40-80 mg/day
[11] = ITT/LOCF, naloxone 10 mg/day + oxycodone 40-80 mg/day
[12] = ITT/LOCF, naloxone 20 mg/day + oxycodone 40-80 mg/day
[13] = ITT/LOCF, naloxone 40 mg/day + oxycodone 40-80 mg/day
[14] = PP, naloxone 20 mg/day + oxycodone 40-80 mg/day
[15] = PP, naloxone 40 mg/day + oxycodone 40-80 mg/day
[16] = naloxone 10 mg/day + oxycodone 40-80 mg/day
[17] = naloxone 20 mg/day + oxycodone 40-80 mg/day
[18] = naloxone 40 mg/day + oxycodone 40-80 mg/day

SMILES: C=CCN1CC[C@]23c4c5ccc(O)c4O[C@H]2C(=O)CC[C@@]3(O)[C@H]1C5 [Naloxone, naloxone]
- Magnitude of reduction of amplitude P1N1 at C4 compared to baseline ([1]; 20 mg oxycodone in combination with 5 mg naloxone): 24.5%
- Magnitude of reduction of amplitude P1N1 at C4 compared to baseline ([1]; 20 mg oxycodone in combination with 15 mg naloxone): 23.7%
- Dose of naloxone PR that does not significantly influence the analgesic effect (EEG) of oxycodone ([1]; based on 20 mg oxycodone PR): below 15 mg
- Mean Bowel Function Score, Mean (SD) V3 [2, 8]: 53.5 (22.2)
- Mean Bowel Function Score, Mean (SD) V3 [2, 9]: 51.3 (21.6)
- Mean Bowel Function Score, Mean (SD) V3 [2, 10]: 48.2 (20.6)
- Mean Bowel Function Score, Mean (SD) V5 [2, 8]: 40.3 (23.1)
- Mean Bowel Function Score, Mean (SD) V5 ([2]; ITT non-missing, naloxone 10 mg/day + oxycodone 40-80 mg/day, listed as naloxone): 40.3 (±23.09) and 40.3 (±23.1)
- Mean Bowel Function Score, Mean (SD) V5 [2, 9]: 31.3 (25.8)
- Mean Bowel Function Score, Mean (SD) V5 ([2]; ITT non-missing, naloxone 20 mg/day + oxycodone 40-80 mg/day, listed as naloxone): 31.3 (±25.82) and 31.3 (±25.8)
- Mean Bowel Function Score, Mean (SD) V5 [2, 10]: 26.1 (25.1)
- Mean Bowel Function Score, Mean (SD) V5 ([2]; ITT non-missing, naloxone 40 mg/day + oxycodone 40-80 mg/day, listed as naloxone): 26.1 (±25.08) and 26.1 (±25.1)
- Mean Bowel Function Score, Mean (SD) V3 [2, 11]: 53.6 (22.8)
- Mean Bowel Function Score, Mean (SD) V3 [2, 12]: 49.9 (23.1)
- Mean Bowel Function Score, Mean (SD) V3 [2, 13]: 47.7 (20.5)
- Mean Bowel Function Score, Mean (SD) V5 [2, 11]: 40.1 (24.7)
- Mean Bowel Function Score, Mean (SD) V5 [2, 12]: 33.2 (28.4)
- Mean Bowel Function Score, Mean (SD) V5 [2, 13]: 26.5 (25.7)
- Mean (±SD) bowel function ([2]; ITT, Visit 4, naloxone 10 mg/day + oxycodone 40-80 mg/day): 42.1 (±25.53)
- Mean (±SD) bowel function ([2]; ITT, Visit 4, naloxone 20 mg/day + oxycodone 40-80 mg/day): 34.2 (±30.04)
- Mean (±SD) bowel function ([2]; ITT, Visit 4, naloxone 40 mg/day + oxycodone 40-80 mg/day): 27.9 (±22.68)
- Mean (±SD) bowel function ([2]; ITT, end of follow-up (oxycodone only), former 40 mg naloxone group): 42.4 (±23.19)
- Mean (±SD) bowel function ([2]; PP, end of maintenance, naloxone 10 mg/day + oxycodone 40-80 mg/day): 39.4 (±23.44)
- Mean (±SD) bowel function ([2]; PP, end of maintenance, naloxone 20 mg/day + oxycodone 40-80 mg/day): 29.8 (±29.29)
- Mean (±SD) bowel function ([2]; PP, end of maintenance, naloxone 40 mg/day + oxycodone 40-80 mg/day): 29.6 (±28.34)
- Oral bioavailability [3]: < 3%
- Mean Pain, Mean (SD) V3 [4, 8]: 35.9 (16.3)
- Mean Pain, Mean (SD) V3 [4, 9]: 39.8 (18.4)
- Mean Pain, Mean (SD) V5 [4, 8]: 37.2 (17.3)
- Mean Pain, Mean (SD) V5 [4, 9]: 37.5 (20.5)
- Mean Pain, Mean (SD) V5 [4, 10]: 38.7 (17.0)
- Mean Pain, Mean (SD) V3 [4, 14]: 40.1 (20.0)
- Mean Pain, Mean (SD) V3 [4, 15]: 39.0 (16.1)
- Mean Pain, Mean (SD) V5 ([4]; PP, naloxone 10 mg/day + oxycodone 40-80 mg/day): 38.8 (18.4)
- Mean Pain, Mean (SD) V5 [4, 14]: 36.1 (19.5)
- Mean Pain, Mean (SD) V5 [4, 15]: 38.7 (16.6)
- Checked signs of withdrawal ([5]; oxycodone-pump rats, 60-min observation): the rats underwent robust withdrawal
- Graded withdrawal signs (escape attempts, wet-dog shakes) ([5]; oxycodone-pump rats, first 15-min): robust withdrawal that was short-lasting that ended within the first 15-min
- Graded withdrawal signs (escape attempts, wet-dog shakes) ([5]; oxycodone-pump rats, later intervals up to 45- to 60-min): no longer significantly present throughout the remainder of the experiment
- Signs of withdrawal ([5]; vehicle-pump rats): no signs of withdrawal were observed
- Intensity estimates of phasic pain stimuli, naloxone effect [6]: seemed to antagonize partly the oxycodone effect
- Mean number of days with laxative intake during the last 7 days prior to the end of maintenance [7, 16]: 2.6±3.34
- Percentage of days (mean±SD) with laxation during the entire maintenance phase [7, 16]: 36.5±33.50
- Mean number of days with laxative intake during the last 7 days prior to the end of maintenance [7, 17]: 2.0±3.14
- Percentage of days (mean±SD) with laxation during the entire maintenance phase [7, 17]: 31.3±41.38
- Mean number of days with laxative intake during the last 7 days prior to the end of maintenance [7, 18]: 1.6±2.93
- Percentage of days (mean±SD) with laxation during the entire maintenance phase [7, 18]: 27.8±41.25
